Legend:
Format in all cases: biochemical
[1] = target: T1, B-Raf (Homo sapiens, UniProt P15056); test: AlphaScreen kinase assay, B-Raf; details: read-out: IC50, activity toward kinase B-Raf
T1 construct: purchased Upstate Biotechnology

[2] = target: T2, B-Raf V600E (Homo sapiens, UniProt P15056, V600E); test: AlphaScreen kinase assay, B-Raf V600E; details: read-out: IC50, activity toward kinase B-Raf V600E
T2 construct: P4254. pFastBacBD-CDC37 BRAF D437-K722-X, V600E; His6 with pFastBac HT leader (TEV site) (N); made in house; host or cells: Sf9 (baculovirus; chaperone CDC37 co-expressed)
T2 sequence (P15056 with tags, fused parts or gaps V600E): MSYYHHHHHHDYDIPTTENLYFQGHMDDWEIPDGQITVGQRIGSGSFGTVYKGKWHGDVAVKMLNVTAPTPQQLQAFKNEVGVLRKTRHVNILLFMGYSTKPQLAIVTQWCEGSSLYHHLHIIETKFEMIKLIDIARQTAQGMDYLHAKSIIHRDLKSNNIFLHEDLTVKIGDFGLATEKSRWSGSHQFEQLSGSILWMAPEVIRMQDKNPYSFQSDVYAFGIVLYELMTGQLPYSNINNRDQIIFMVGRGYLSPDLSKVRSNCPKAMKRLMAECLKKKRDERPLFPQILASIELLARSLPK

[3] = target: T3, FGFR1 (Homo sapiens, UniProt P11362, C488A/C584S); test: AlphaScreen kinase assay, FGFR1; details: read-out: IC50, activity toward kinase FGFR
T3 construct: P1351.pET N6 BI-PTP FGFR A458-E765-X C488A, C584S; made in house; host or cells: E. coli (PTP1B co-expressed)
T3 sequence (P11362 458-765 C488A/C584S): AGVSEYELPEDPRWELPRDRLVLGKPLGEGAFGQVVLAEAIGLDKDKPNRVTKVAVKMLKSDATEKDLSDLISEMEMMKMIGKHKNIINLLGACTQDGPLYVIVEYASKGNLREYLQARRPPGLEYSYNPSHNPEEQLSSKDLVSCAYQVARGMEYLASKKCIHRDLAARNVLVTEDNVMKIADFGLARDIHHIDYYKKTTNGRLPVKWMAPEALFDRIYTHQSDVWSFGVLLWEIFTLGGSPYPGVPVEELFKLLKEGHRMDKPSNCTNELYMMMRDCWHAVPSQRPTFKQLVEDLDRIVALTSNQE

[4] = target: T4, Flt1 (Homo sapiens, UniProt P17948); test: AlphaScreen kinase assay, Flt1; details: read-out: IC50, activity toward kinase Flt1
T4 construct: P1826.pETN6 BI-PTP FLT1 M799-D1165-X WT; His6 (N); made in house; host or cells: E. coli (PTP1B co-expressed)
T4 sequence (P17948 with tags, fused parts or gaps): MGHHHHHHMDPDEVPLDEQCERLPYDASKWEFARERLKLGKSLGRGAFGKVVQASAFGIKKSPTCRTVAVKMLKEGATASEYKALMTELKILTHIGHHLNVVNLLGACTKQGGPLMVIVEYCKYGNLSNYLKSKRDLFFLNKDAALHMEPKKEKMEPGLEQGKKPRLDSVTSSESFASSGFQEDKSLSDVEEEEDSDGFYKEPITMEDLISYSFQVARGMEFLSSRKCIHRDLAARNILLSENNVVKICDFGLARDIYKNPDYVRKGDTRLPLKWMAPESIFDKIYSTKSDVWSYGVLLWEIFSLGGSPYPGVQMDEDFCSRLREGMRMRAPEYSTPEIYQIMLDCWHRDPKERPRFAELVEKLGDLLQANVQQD

[5] = target: T5, Fms (Homo sapiens, UniProt P07333); test: AlphaScreen kinase assay, Fms; details: read-out: IC50, activity toward kinase Fms
T5 construct: purchased Upstate Biotechnology
T5 sequence (P07333 20-972): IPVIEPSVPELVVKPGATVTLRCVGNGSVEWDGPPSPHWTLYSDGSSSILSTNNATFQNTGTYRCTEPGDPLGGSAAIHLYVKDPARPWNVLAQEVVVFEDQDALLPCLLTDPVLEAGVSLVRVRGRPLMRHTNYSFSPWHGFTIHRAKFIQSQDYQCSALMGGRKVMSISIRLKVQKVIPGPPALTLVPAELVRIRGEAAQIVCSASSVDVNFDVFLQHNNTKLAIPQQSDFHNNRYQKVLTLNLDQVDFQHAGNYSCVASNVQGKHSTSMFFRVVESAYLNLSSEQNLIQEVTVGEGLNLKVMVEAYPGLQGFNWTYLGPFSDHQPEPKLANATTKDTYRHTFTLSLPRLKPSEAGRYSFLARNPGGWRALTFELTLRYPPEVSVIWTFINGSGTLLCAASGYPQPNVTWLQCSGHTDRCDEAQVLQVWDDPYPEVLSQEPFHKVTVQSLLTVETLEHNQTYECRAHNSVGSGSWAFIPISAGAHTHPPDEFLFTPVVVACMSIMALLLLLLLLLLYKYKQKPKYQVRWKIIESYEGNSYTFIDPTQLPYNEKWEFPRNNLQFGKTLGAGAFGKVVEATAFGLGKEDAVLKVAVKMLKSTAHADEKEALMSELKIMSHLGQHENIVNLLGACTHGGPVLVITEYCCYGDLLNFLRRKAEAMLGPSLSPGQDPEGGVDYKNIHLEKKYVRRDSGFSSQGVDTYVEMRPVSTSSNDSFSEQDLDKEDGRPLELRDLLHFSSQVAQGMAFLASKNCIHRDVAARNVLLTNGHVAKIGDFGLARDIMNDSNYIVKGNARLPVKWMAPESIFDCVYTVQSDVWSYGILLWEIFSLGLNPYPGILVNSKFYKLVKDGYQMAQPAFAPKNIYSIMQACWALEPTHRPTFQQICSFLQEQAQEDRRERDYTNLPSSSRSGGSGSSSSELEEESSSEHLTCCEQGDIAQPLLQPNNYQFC
Excerpt: AlphaScreen assay was used to screen additional kinases. The assay is similarly dependent on the phosphorylation of a peptide substrate. In this assay, an antibody that recognizes phosphorylated substrate is bound to an acceptor bead. The peptide substrate is attached to biotin, which binds to a donor head that contains streptavidin. Thus phosphorylated substrate is bound by antibody and streptavidin, bringing the donor and acceptor heads into close proximity when kinase is not inhibited. The donor produces singlet oxygen which results in emission from the acceptor when they are in close proximity. Conversely, when kinase is inhibited, the donor and acceptor beads are not associated and the emission from the acceptor is reduced.
AlphaScreen assays were done using compounds dissolved in DMSO to a concentration of 20 mM. The compounds were diluted accordingly to the desired final concentrations in each sample well, using 1:3 serial dilution for a total of 8 concentration points. Plates were prepared such that each kinase reaction is 20 μl in 1× kinase buffer, 5% DMSO and 10 μM ATP. After incubation of the kinase reaction for 1 hour at room temperature, 5 μl of donor beads in stop buffer (50 mM EDTA in 1× kinase buffer) was added, the sample was mixed and incubated for 20 minutes at room temperature before adding 5 μl of acceptor beads in stop buffer. The samples were incubated for 60 minutes at room temperature and the signal per well was read on AlphaQuest reader.

[6] = target: T6, Kit (Homo sapiens, UniProt P10721); test: AlphaScreen kinase assay, Kit; details: read-out: IC50, activity toward kinase Kit
T6 construct: P1332.N6 BI PTP KIT M552-K948-X COD; His6 (N); made in house; host or cells: E. coli (PTP1B co-expressed)
T6 sequence (P10721 with tags, fused parts or gaps): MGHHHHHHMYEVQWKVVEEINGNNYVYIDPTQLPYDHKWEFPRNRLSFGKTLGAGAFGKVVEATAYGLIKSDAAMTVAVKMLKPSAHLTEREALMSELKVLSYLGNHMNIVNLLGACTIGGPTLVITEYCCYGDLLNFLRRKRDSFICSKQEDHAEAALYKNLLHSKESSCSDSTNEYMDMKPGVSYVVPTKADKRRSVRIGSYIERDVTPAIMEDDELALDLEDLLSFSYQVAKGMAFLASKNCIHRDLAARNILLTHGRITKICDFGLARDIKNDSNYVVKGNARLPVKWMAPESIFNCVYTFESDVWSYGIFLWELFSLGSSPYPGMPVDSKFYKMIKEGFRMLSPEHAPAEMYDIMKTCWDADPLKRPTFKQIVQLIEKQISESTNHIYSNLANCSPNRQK

Measured: IC50

T1 sequence (P15056 whole entry): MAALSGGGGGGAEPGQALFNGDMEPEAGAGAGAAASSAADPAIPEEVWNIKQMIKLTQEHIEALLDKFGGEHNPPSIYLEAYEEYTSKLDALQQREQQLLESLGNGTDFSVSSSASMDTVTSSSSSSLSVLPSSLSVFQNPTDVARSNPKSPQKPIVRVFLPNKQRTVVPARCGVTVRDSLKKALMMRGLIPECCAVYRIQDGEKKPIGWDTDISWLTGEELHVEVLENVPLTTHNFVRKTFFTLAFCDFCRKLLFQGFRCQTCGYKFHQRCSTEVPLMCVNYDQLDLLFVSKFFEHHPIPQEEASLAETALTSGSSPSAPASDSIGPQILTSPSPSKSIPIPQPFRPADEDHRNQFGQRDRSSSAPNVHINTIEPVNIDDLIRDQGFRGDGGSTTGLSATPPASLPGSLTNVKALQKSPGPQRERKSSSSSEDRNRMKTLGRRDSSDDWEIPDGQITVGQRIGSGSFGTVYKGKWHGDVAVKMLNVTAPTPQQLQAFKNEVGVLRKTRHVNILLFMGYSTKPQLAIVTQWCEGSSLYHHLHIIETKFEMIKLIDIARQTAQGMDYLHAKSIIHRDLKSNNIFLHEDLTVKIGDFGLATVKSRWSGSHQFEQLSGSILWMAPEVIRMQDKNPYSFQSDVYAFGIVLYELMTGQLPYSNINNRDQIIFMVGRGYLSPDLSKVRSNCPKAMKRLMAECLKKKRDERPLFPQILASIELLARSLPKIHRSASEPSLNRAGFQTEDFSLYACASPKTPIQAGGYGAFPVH

CCCS(=O)(=O)Nc1cccc(C(=O)c2c[nH]c3ncc(Br)cc23)c1C [Compound P-1608]
not listed: [6]
≤ 10 µM: all other assays above

COc1cnc2[nH]cc(Cc3c(F)ccc(NS(=O)(=O)c4cccc(C(F)(F)F)c4)c3F)c2c1 [Compound P-1590, N-[2,4-Difluoro-3-(5-methoxy-1H-pyrrolo[2,3-b]pyridin-3-ylmethyl)-phenyl]-3-trifluoromethyl-benzenesulfonamide]
≤ 10 µM: [1] | [2] | [4] | [6]

COc1ccnc2[nH]cc(Cc3ccc(NCc4ccc(C(F)(F)F)cc4)nc3)c12 [Compound P-1110]
≤ 10 µM: [1] | [3] | [4] | [5]

COc1cnc2[nH]cc(C(=O)c3c(F)ccc(NS(=O)(=O)c4ccc(F)cc4)c3F)c2c1 [Compound P-1582, N-[2,4-Difluoro-3-(5-methoxy-1H-pyrrolo[2,3-b]pyridine-3-carbonyl)-phenyl]-4-fluoro-benzenesulfonamide]
not listed: [5]
≤ 10 µM: all other assays above

O=C(NCCN1CCOCC1)Nc1ccc(F)c(C(=O)c2c[nH]c3ncc(Cl)cc23)c1F [Compound P-1580, 1-[3-(5-Chloro-1H-pyrrolo[2,3-b]pyridine-3-carbonyl)-2,4-difluoro-phenyl]-3-(2-morpholin-4-yl-ethyl)-urea]
≤ 10 µM: [1] | [4] | [5] | [6]

Cc1c(NS(=O)(=O)N(C)C)cccc1C(=O)c1c[nH]c2ncc(Br)cc12 [Compound P-1609]
not listed: [6]
≤ 10 µM: all other assays above

CS(=O)(=O)Nc1cccc(-c2cnc3[nH]cc(C(=O)c4ccc5c(c4)OC(F)(F)O5)c3c2)c1 [Compound P-1564, N-{3-[3-(2,2-Difluoro-benzo[1,3]dioxole-5-carbonyl)-1H-pyrrolo[2,3-b]pyridin-5-yl]-phenyl}-methanesulfonamide]
not listed: [1]
≤ 10 µM: all other assays above

O=S(=O)(Nc1ccc(F)c(Cc2c[nH]c3ncc(Cl)cc23)c1F)c1cccc(C(F)(F)F)c1 [Compound P-1600, N-[2,4-Difluoro-3-(5-chloro-1H-pyrrolo[2,3-b]pyridin-3-ylmethyl)-phenyl]-3-trifluoromethyl-benzenesulfonamide]
≤ 10 µM: [1] | [2] | [4]

Nc1cccc(C(=O)c2c[nH]c3ncc(-c4cccc(OC(F)(F)F)c4)cc23)c1 [Compound P-1593]
≤ 10 µM: [1] | [3] | [4] | [6]

CCCCNC(=O)Nc1ccc(F)c(C(=O)c2c[nH]c3ncc(Cl)cc23)c1F [Compound P-1586, 1-Butyl-3-[3-(5-chloro-1H-pyrrolo[2,3-b]pyridine-3-carbonyl)-2,4-difluoro-phenyl]-urea]
≤ 10 µM: [1] | [2] | [4] | [5]

CS(=O)(=O)Nc1ccc(F)c(Cc2c[nH]c3ncc(-c4cccnc4)cc23)c1F [Compound P-1605, N-[2,4-Difluoro-3-(5-pyridin-3-yl-1H-pyrrolo[2,3-b]pyridin-3-ylmethyl)-phenyl]-methanesulfonamide]
not listed: [5]
≤ 10 µM: all other assays above

CCCCN(C)C(=O)Nc1ccc(F)c(C(=O)c2c[nH]c3ncc(Cl)cc23)c1F [Compound P-1612, 1-Butyl-3-[3-(5-chloro-1H-pyrrolo[2,3-b]pyridine-3-carbonyl)-2,4-difluoro-phenyl]-1-methyl-urea]
≤ 10 µM: [1] | [2] | [4] | [5]

Source: US8415469B2, “Compounds and methods for kinase modulation, and indications therefor” (Plexxikon Inc., priority 2005, dated 2013)
